Experiment [1] deals with A549. As to the kind of experiment: Cytotoxicity against human A549 cells by Alamar blue assay. The format is functional, cell-based. For orientation: Alamar Blue is a resazurin reagent that responds to reducing activity.
Experiment [2] can be described thus: Antiinflammatory activity in human neutrophils assessed as inhibition of fMLP/CB-induced elastase release using MeO-Suc-Ala-Ala-Pro-Val-p-nitroanilide as substrate at 10 uM after 5 mins by […] analysis. Conditions: Neutrophil. The format is functional.
Experiment [3] deals with K562. In words: Cytotoxicity against human K562 cells by Alamar blue assay. The format is functional, cell-based.
Experiment [4] deals with HT-29. As to the kind of experiment: Cytotoxicity against human HT-29 cells by Alamar blue assay. The format is functional, cell-based.
Experiment [5] in a line: Antiinflammatory activity in human neutrophils assessed as inhibition of fMLP/CB-induced superoxide anion generation at 10 uM after 5 mins by ferricytochrome c based spectrophotometric analysis. The experiment is classed as functional. Conditions: Neutrophil.
Experiment [6] can be described thus: Antiinflammatory activity in human neutrophils assessed as inhibition of fMLP/CB-induced elastase release using MeO-Suc-Ala-Ala-Pro-Val-p-nitroanilide as substrate after 5 mins by […] analysis. The experiment is classed as functional, cell-based. The following applies: Neutrophil.
The nature of experiment [7]: Antiinflammatory activity in human neutrophils assessed as inhibition of fMLP/CB-induced superoxide anion generation after 5 mins by ferricytochrome c based spectrophotometric analysis. The format is functional, cell-based. Conditions: Neutrophil.
Experiment [8] can be described thus: Cytotoxicity against human DLD1 cells by Alamar blue assay. The format is functional, cell-based. Conditions: DLD-1.
The subject of experiment [9] is P388. As to the kind of experiment: Cytotoxicity against mouse P388 cells by Alamar blue assay. The format is functional, cell-based.

Broadly, the IC50 is the concentration that gives 50% inhibition. One may read the inhibition as the change of the read-out against control, counted positive when it falls.

Consider `CC(C)[C@@H](C)[C@@]1(C)C[C@@H]1[C@@H](C)[C@H]1CC[C@H]2[C@@H]3[C@@H](O)C=C4C[C@@H](O)CC[C@]4(C)[C@@]3(O)[C@H](O)C[C@]12C`, for which the IC50 in [1] was over 40 µM; in experiment [3] it was over 40 µM; in experiment [4], over 40 µM; in experiment [6] it was over 10 µM; in experiment [7], over 10 µM; in experiment [8], over 40 µM. The same compound returned an IC50 in [9] of over 40 µM. Also, the inhibition at 10 µM was 16.4% in experiment [2] and -5.97% in [5].

For the compound `O=c1cc(N2CCOCC2)oc2c(-c3ccccc3)cccc12` [LY-294002], the IC50 in experiment [6] was determined as 5.15 µM; in experiment [7], 3.65 µM.

In the case of `COc1cccc2c1C(=O)c1c(O)c3c(c(O)c1C2=O)C[C@@](O)(C(=O)CO)C[C@@H]3O[C@H]1C[C@H](N)[C@H](O)[C@H](C)O1` [DOXORUBICIN], the IC50 in experiment [1] is 0.55 µM; in experiment [3], 0.94 µM; in experiment [4] it was 0.87 µM; in experiment [8], 2.78 µM; in experiment [9], 0.9 µM.

Take `CC(C)[C@@H](C)[C@H](C)C[C@@](C)(O)C1=CC[C@H]2[C@@H]3CC=C4C[C@@H](O)CC[C@]4(C)[C@H]3[C@H](O)C[C@]12C`: the 50% inhibitory concentration (IC50) in experiment [1] was over 40 µM; in experiment [3], 12.7 µM; in experiment [4] it was 15.1 µM; in experiment [6], 4.4 µM; in [7] it was 5.64 µM; in experiment [8], over 40 µM. The compound further yielded an IC50 in experiment [9] of 14.8 µM. In addition, the inhibition at 10 µM in [2] amounted to 114%; in experiment [5], 76.3%.

With `CC(C)[C@@H](C)[C@@]1(C)C[C@@H]1[C@@H](C)[C@H]1CC[C@H]2[C@H]3[C@H]([C@H](O)C[C@]12C)[C@@]1(C)CC[C@H](O)CC1=C[C@@H]3O`, the IC50 is over 40 µM in [1]; over 40 µM in [3]; over 40 µM in experiment [4]; over 10 µM in experiment [6]; over 10 µM in experiment [7]; over 40 µM in [8]. In experiment [9], this compound registered an IC50 of over 40 µM. Also, the inhibition at 10 µM turned out to be 21.8% in experiment [2] and 11.1% in experiment [5].

On to `CC(C)[C@@H](C)[C@@]1(C)C[C@@H]1[C@@H](C)[C@H]1CC[C@H]2[C@H]3[C@H]([C@H](O)[C@H](O)[C@]12C)[C@@]1(C)CC[C@H](O)CC1=C[C@@H]3O`, for which the IC50 is over 40 µM in [1]; over 40 µM in [3]; over 40 µM in experiment [4]; over 40 µM in experiment [8]; 15.5 µM in experiment [9].

The record behind these values is ChEMBL document CHEMBL3813665, “New cytotoxic and anti-inflammatory steroids from the soft coral Klyxum flaccidum” (Bioorg Med Chem Lett, 2016).
